Article PMC4990249, “Mitochondrial Probe Methyltriphenylphosphonium (TPMP) Inhibits the Krebs Cycle Enzyme 2-Oxoglutarate Dehydrogenase” (PLoS ONE, 2016)

Experiments:
[1] = molecular target: T1, 2-oxoglutarate dehydrogenase complex (OGDHC) (Rattus norvegicus, UniProt Q01205+Q5XI78+Q6P6R2); experiment: spectrophotometric OGDHC activity (A340) at […] compound in muscle homogenate; format: cell-based; set-up: gene Ogdh; native complex in rat skeletal muscle homogenate enriched in mitochondrial fraction; with E2 and E3 components of the complex; conditions: read-out: % of control activity at 1 mM
T1 sequence (Q5XI78 41-1023): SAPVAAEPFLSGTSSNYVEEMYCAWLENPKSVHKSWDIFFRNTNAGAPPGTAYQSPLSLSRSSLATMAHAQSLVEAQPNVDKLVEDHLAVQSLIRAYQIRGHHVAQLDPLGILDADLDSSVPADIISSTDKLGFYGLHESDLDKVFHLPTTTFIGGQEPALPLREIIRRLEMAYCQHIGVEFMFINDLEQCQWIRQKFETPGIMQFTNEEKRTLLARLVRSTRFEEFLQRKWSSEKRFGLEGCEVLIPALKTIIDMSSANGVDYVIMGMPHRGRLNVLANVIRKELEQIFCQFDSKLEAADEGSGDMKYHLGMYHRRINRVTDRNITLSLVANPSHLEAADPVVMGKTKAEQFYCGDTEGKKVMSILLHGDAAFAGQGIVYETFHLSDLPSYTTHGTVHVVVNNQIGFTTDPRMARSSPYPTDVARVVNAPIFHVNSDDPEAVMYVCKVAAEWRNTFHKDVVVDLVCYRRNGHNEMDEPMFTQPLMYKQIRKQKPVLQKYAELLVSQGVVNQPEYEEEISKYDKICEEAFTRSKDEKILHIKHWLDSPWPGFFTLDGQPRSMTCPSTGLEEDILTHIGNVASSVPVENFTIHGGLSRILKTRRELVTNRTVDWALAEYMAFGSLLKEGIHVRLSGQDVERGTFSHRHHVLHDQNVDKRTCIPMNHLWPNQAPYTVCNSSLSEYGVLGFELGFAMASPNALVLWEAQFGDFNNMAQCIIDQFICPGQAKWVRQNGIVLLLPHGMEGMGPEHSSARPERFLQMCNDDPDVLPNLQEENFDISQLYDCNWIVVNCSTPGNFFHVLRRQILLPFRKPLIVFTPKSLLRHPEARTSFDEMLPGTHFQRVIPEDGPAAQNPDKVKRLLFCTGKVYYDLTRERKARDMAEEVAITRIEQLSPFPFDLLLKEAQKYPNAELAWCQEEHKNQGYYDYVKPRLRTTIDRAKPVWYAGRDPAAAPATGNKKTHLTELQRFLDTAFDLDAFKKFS
T1 sequence (Q01205 69-454): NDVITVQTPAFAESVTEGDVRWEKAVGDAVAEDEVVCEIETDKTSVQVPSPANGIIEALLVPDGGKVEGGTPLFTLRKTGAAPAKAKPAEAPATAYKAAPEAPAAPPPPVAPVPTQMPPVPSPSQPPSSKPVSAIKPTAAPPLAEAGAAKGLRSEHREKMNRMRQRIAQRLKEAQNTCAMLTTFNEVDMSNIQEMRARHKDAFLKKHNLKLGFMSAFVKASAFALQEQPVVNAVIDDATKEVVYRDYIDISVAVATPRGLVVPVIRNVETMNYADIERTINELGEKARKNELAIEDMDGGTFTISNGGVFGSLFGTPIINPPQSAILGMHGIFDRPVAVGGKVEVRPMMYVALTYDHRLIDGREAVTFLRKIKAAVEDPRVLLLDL
T1 sequence (Q6P6R2 36-509): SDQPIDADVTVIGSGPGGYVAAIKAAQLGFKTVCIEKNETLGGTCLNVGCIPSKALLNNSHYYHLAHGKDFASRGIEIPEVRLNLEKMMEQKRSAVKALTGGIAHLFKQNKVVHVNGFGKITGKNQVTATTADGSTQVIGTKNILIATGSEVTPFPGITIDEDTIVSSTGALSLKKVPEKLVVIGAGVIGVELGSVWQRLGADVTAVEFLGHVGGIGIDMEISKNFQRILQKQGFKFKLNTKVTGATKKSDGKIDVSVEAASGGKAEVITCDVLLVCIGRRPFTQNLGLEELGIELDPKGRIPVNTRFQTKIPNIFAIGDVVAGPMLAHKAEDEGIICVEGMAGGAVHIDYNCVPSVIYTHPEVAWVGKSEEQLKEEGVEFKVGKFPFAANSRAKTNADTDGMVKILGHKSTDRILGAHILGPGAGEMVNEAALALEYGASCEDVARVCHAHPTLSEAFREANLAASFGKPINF

[2] = molecular target: T2, 2-oxoglutarate dehydrogenase complex (OGDHC) (Sus scrofa, UniProt K9IVI1+P09623+Q9N0F1); experiment: Michaelis-Menten kinetics of purified complex, NADH absorbance at […] nm, […] TPMP; format: biochemical
T2 construct: gene OGDH; purified OGDHC enzyme (Sigma K1502), intact complex; with E2 component (dihydrolipoyl transsuccinylase) and E3 component (dihydrolipoyl dehydrogenase) of the complex
T2 sequence (K9IVI1 41-1023): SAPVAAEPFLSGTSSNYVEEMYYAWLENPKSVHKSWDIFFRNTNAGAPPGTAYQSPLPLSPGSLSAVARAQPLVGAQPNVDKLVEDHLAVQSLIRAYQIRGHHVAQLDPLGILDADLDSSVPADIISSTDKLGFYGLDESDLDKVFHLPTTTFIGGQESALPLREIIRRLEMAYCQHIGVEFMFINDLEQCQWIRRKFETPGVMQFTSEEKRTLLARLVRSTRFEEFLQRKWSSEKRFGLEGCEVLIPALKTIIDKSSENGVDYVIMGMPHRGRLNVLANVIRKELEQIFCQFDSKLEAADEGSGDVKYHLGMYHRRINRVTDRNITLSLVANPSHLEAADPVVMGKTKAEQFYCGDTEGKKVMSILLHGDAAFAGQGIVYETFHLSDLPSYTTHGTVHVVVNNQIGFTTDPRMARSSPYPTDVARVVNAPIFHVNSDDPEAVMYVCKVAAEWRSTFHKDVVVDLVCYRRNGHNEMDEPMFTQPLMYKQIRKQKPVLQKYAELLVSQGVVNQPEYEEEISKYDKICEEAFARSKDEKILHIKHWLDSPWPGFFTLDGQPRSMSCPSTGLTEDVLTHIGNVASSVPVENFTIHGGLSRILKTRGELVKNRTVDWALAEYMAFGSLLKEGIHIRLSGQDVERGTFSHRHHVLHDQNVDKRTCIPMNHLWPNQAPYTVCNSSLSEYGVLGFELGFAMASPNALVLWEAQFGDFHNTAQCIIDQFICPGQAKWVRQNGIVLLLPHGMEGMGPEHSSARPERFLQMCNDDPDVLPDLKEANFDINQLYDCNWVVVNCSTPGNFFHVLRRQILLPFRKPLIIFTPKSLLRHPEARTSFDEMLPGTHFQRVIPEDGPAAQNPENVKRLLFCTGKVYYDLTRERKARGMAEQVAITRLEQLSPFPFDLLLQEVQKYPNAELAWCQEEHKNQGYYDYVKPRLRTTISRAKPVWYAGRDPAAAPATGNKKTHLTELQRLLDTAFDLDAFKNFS
T2 sequence (Q9N0F1 69-455): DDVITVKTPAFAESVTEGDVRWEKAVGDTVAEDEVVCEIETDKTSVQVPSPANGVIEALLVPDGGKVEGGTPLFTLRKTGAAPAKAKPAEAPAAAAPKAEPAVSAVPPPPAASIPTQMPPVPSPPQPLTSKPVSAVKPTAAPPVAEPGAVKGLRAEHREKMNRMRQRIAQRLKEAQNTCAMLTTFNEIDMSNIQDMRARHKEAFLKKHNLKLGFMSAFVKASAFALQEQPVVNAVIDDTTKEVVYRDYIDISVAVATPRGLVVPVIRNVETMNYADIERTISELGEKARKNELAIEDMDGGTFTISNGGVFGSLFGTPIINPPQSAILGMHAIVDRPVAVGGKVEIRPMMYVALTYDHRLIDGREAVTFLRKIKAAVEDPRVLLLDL
T2 sequence (P09623 36-509): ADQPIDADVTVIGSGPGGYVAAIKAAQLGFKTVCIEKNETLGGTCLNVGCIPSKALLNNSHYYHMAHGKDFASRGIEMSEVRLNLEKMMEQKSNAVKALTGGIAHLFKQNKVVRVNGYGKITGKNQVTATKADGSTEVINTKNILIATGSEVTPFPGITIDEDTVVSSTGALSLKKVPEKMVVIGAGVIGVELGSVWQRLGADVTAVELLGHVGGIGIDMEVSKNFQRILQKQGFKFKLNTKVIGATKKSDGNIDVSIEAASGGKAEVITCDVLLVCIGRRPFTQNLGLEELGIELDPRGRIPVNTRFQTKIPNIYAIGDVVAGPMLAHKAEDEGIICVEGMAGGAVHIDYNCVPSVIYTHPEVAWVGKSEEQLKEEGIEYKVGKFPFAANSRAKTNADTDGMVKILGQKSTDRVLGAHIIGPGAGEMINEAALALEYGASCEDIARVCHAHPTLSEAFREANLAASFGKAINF

[3] = molecular target: T1, 2-oxoglutarate dehydrogenase complex (OGDHC); experiment: biochemical; set-up: gene Ogdh

| Structure (SMILES) | remaining activity at 1000 µM [1] [%] | Michaelis-Menten kinetics of purified complex, NADH absorbance at 340 nm, 0-5 mM [2] | IC50 [3] [mM] |
| --- | --- | --- | --- |
| CCCCC[P+](c1ccccc1)(c1ccccc1)c1ccccc1 [Pentyl, pentyltriphenylphosphonium] | 15.9 |  |  |
| CCC[P+](c1ccccc1)(c1ccccc1)c1ccccc1 [Propyl, propyltriphenylphosphonium] | 60.7 |  |  |
| C[P+](c1ccccc1)(c1ccccc1)c1ccccc1 [TPMP, Methyltriphenylphosphonium] |  | The pattern of decreasing Vmax and increasing Km fits in a mixed-inhibition model. | 3.93 |
